# In patent US20230295560A1, “SYNTHETIC ECOLOGIES FOR DRUG DISCOVERY” (priority 2021, published 2023):
# Legend:
# E. coli BW25113 = assay: Minimum inhibitory concentration (MIC) of DOX for E. coli BW25113 ancestor and end-point isolates; assay type: cell-based
# Description: Experimental protocol. Five populations of E. coli were adapted to DOX in flasks to identify the selection gradient for adaptation to DOX. On the first day, six different colonies were used to inoculate control and five populations containing fresh media. The growth media for E. coli was Lysogeny broth (LB; 10 g/l tryptone, 5 g/l yeast extract, 5 g/l sodium chloride). The following day, each population was transferred to fresh media containing 1 μg/ml DOX with 100-fold dilutions. The fresh media containing desired DOX concentration was prepared by appropriate dilution of DOX stock solution. The stock solution was prepared by dissolving DOX (Tokyo Chemical Industry Co., LTD, Japan) in water, followed by filter sterilization through a 0.22 μm filter (Millex-GP, Millipore, Bedford, MA). The following day, each population was transferred to three tubes containing 1×, 1.5×, and 2× of the current DOX concentration. Hereafter, each population with the best growth was transferred into three new tubes while the control population was propagated in fresh media until twice the DOX clinical breakpoint (16 μg/ml) was reached. In a similar way, on the first day of serial transfer of E. coli to DOX in microdroplets, four to six different colonies were used to inoculate control and three to five populations containing fresh media. The following day, the growth media containing a starting size of ˜2.6×10^6 cells/ml was prepared for each population through appropriate dilution of overnight culture. Fluorinated oil (Novec 7500, 3M, St Paul, MN) with 1.5 w/w % surfactants (Pico-Surf 1™, Sphere Fluidics, Cambridge, UK) was the continuous phase while the growth media containing E. coli was the dispersed phase. These prepared continuous and dispersed phases were injected into four to six microfluidic chips using twelve-multi channel syringe pumps (New Era Pump Systems, Farmingdale, NY) with determined flow rates. More than 800 μl droplets for each population were collected in either a 1.5 ml microfuge tube or a 50 ml tube for the incubation at 37° C. After incubation for 24 h, these droplets were chemically broken with a demulsifier (1H, 1H, 2H, 2H-Perfluorooctanol, >97%, Alfa Aesar, Ward Hill, MA). After OD measurement, cells were propagated by dilution in fresh growth media containing higher DOX concentrations until a concentration of 16 μg/ml. Experiment images were captured using a bright-field inverted microscope (Eclipse Ti2, Nikon, Japan) with a mounted high-speed camera (Phantom V7.2).
# At the end of the experiment, individual end-point isolates were isolated randomly by streaking the entire population onto non-selective, nutrient-rich agar plates. End point isolates are defined as randomly selected, independent colonies derived from an evolved population. Since evolved populations are diverse, each end point isolate could potentially have different genotypes. A minimum of three end-point isolates was subjected to whole genome sequencing from each experimental evolution study. In addition, total genomic DNA for each evolved population was isolated and subjected to metagenomic analysis to identify the allelic frequency in the final populations (Dataset S1-S6). The populations were sequenced to achieve at least 100× coverage and a threshold of 5% was used to identify mutations. Both serial transfer and microdroplet populations identified the well-known adaptive alleles marR, acrR, rpsJ and envZ^32-35 as well as the movement of an insertion element IS186 into the upstream regulatory region of the gene encoding the Lon protease (FIG. 17). […] Both methods clearly implicated regulation of the AcrAB-TolC as the fundamental driver for DOX resistance, but there were interesting differences in the evolutionary trajectories identified.
# P. aeruginosa PAO1 = conditions: cited from earlier work
# Enterobacter species = conditions: some Enterobacter species, after exposure to gradually increasing concentrations; cited from earlier work
molecule,measurement,setting,value
C[C@H]1c2cccc(O)c2C(O)=C2C(=O)[C@]3(O)C(O)=C(C(N)=O)C(=O)[C@@H](N(C)C)[C@@H]3[C@@H](O)[C@@H]21 [DOX],MIC of DOX,"E. coli BW25113; F (batch), end-point isolate 1-1",>16 µg/mL
same,MIC of DOX,"E. coli BW25113; F (batch), end-point isolate 1-2",16 µg/mL
same,MIC of DOX,"E. coli BW25113; F (batch), end-point isolate 1-3",16 µg/mL
same,MIC of DOX,"E. coli BW25113; F (batch), end-point isolate 2-1",16 µg/mL
same,MIC of DOX,"E. coli BW25113; F (batch), end-point isolate 2-2",16 µg/mL
same,MIC of DOX,"E. coli BW25113; F (batch), end-point isolate 2-3",>16 µg/mL
same,MIC of DOX,"E. coli BW25113; F (batch), end-point isolate 3-1",16 µg/mL
same,MIC of DOX,"E. coli BW25113; F (batch), end-point isolate 3-2",16 µg/mL
same,MIC of DOX,"E. coli BW25113; F (batch), end-point isolate 3-3",16 µg/mL
same,MIC of DOX,"E. coli BW25113; F (batch), end-point isolate 4-1",16 µg/mL
same,MIC of DOX,"E. coli BW25113; F (batch), end-point isolate 4-2",16 µg/mL
same,MIC of DOX,"E. coli BW25113; F (batch), end-point isolate 4-3",>16 µg/mL
same,MIC of DOX,"E. coli BW25113; F (batch), end-point isolate 5-1",16 µg/mL
same,MIC of DOX,"E. coli BW25113; F (batch), end-point isolate 5-2",>16 µg/mL
same,MIC of DOX,"E. coli BW25113; F (batch), end-point isolate 5-3",>16 µg/mL
same,MIC of DOX,"E. coli BW25113; F (batch), isolate C1 (no drug control)",4 µg/mL
same,MIC of DOX,"E. coli BW25113; F (batch), isolate C2 (no drug control)",4 µg/mL
same,MIC of DOX,"E. coli BW25113; F (batch), isolate C3 (no drug control)",4 µg/mL
same,MIC of DOX for the ancestor,E. coli BW25113; ancestor E. coli BW25113,4 µg/mL
same,MIC of DOX,"E. coli BW25113; microemulsion D1, end-point isolate 1-1",8 µg/mL
same,MIC of DOX,"E. coli BW25113; microemulsion D1, end-point isolate 1-2",8 µg/mL
same,MIC of DOX,"E. coli BW25113; microemulsion D1, end-point isolate 1-3",8 µg/mL
same,MIC of DOX,"E. coli BW25113; microemulsion D1, end-point isolate 2-1",16 µg/mL
same,MIC of DOX,"E. coli BW25113; microemulsion D1, end-point isolate 2-2",16 µg/mL
same,MIC of DOX,"E. coli BW25113; microemulsion D1, end-point isolate 2-3",16 µg/mL
same,MIC of DOX,"E. coli BW25113; microemulsion D1, end-point isolate 3-1",16 µg/mL
same,MIC of DOX,"E. coli BW25113; microemulsion D1, end-point isolate 3-2",16 µg/mL
same,MIC of DOX,"E. coli BW25113; microemulsion D1, end-point isolate 3-3",16 µg/mL
same,MIC of DOX,"E. coli BW25113; microemulsion D1, end-point isolate 4-1",16 µg/mL
same,MIC of DOX,"E. coli BW25113; microemulsion D1, end-point isolate 4-2",>16 µg/mL
same,MIC of DOX,"E. coli BW25113; microemulsion D1, end-point isolate 4-3",16 µg/mL
same,MIC of DOX,"E. coli BW25113; microemulsion D1, end-point isolate 5-1",16 µg/mL
same,MIC of DOX,"E. coli BW25113; microemulsion D1, end-point isolate 5-2",16 µg/mL
same,MIC of DOX,"E. coli BW25113; microemulsion D1, end-point isolate 5-3",16 µg/mL
same,MIC of DOX,"E. coli BW25113; microemulsion D1, isolate C1 (no drug control)",4 µg/mL
same,MIC of DOX,"E. coli BW25113; microemulsion D1, isolate C2 (no drug control)",4 µg/mL
same,MIC of DOX,"E. coli BW25113; microemulsion D1, isolate C3 (no drug control)",4 µg/mL
same,MIC of DOX,"E. coli BW25113; microemulsion D2, end-point isolate 1-1",16 µg/mL
same,MIC of DOX,"E. coli BW25113; microemulsion D2, end-point isolate 1-2",16 µg/mL
same,MIC of DOX,"E. coli BW25113; microemulsion D2, end-point isolate 1-3",16 µg/mL
same,MIC of DOX,"E. coli BW25113; microemulsion D2, end-point isolate 2-1",16 µg/mL
same,MIC of DOX,"E. coli BW25113; microemulsion D2, end-point isolate 2-2",16 µg/mL
same,MIC of DOX,"E. coli BW25113; microemulsion D2, end-point isolate 2-3",16 µg/mL
same,MIC of DOX,"E. coli BW25113; microemulsion D2, end-point isolate 3-1",16 µg/mL
same,MIC of DOX,"E. coli BW25113; microemulsion D2, end-point isolate 3-2",16 µg/mL
same,MIC of DOX,"E. coli BW25113; microemulsion D2, end-point isolate 3-3",16 µg/mL
same,MIC of DOX,"E. coli BW25113; microemulsion D2, end-point isolate 4-1",16 µg/mL
same,MIC of DOX,"E. coli BW25113; microemulsion D2, end-point isolate 4-2",16 µg/mL
same,MIC of DOX,"E. coli BW25113; microemulsion D2, end-point isolate 4-3",16 µg/mL
same,MIC of DOX,"E. coli BW25113; microemulsion D2, end-point isolate 5-1",16 µg/mL
same,MIC of DOX,"E. coli BW25113; microemulsion D2, end-point isolate 5-2",16 µg/mL
same,MIC of DOX,"E. coli BW25113; microemulsion D2, end-point isolate 5-3",16 µg/mL
same,MIC of DOX,"E. coli BW25113; microemulsion D2, isolate C1 (no drug control)",4 µg/mL
same,MIC of DOX,"E. coli BW25113; microemulsion D2, isolate C2 (no drug control)",4 µg/mL
same,MIC of DOX,"E. coli BW25113; microemulsion D2, isolate C3 (no drug control)",4 µg/mL
same,MIC of DOX,"E. coli BW25113; microemulsion D3, end-point isolate 1-1",16 µg/mL
same,MIC of DOX,"E. coli BW25113; microemulsion D3, end-point isolate 1-2",16 µg/mL
same,MIC of DOX,"E. coli BW25113; microemulsion D3, end-point isolate 1-3",16 µg/mL
same,MIC of DOX,"E. coli BW25113; microemulsion D3, end-point isolate 2-1",8 µg/mL
same,MIC of DOX,"E. coli BW25113; microemulsion D3, end-point isolate 2-2",16 µg/mL
same,MIC of DOX,"E. coli BW25113; microemulsion D3, end-point isolate 2-3",8 µg/mL
same,MIC of DOX,"E. coli BW25113; microemulsion D3, end-point isolate 3-1",16 µg/mL
same,MIC of DOX,"E. coli BW25113; microemulsion D3, end-point isolate 3-2",8 µg/mL
same,MIC of DOX,"E. coli BW25113; microemulsion D3, end-point isolate 3-3",16 µg/mL
same,MIC of DOX,"E. coli BW25113; microemulsion D3, end-point isolate 4-1",16 µg/mL
same,MIC of DOX,"E. coli BW25113; microemulsion D3, end-point isolate 4-2",16 µg/mL
same,MIC of DOX,"E. coli BW25113; microemulsion D3, end-point isolate 4-3",16 µg/mL
same,MIC of DOX,"E. coli BW25113; microemulsion D3, end-point isolate 5-1",16 µg/mL
same,MIC of DOX,"E. coli BW25113; microemulsion D3, end-point isolate 5-2",16 µg/mL
same,MIC of DOX,"E. coli BW25113; microemulsion D3, end-point isolate 5-3",16 µg/mL
same,MIC of DOX,"E. coli BW25113; microemulsion D3, isolate C1 (no drug control)",4 µg/mL
same,MIC of DOX,"E. coli BW25113; microemulsion D3, isolate C2 (no drug control)",4 µg/mL
same,MIC of DOX,"E. coli BW25113; microemulsion D3, isolate C3 (no drug control)",4 µg/mL
same,MIC of DOX,"E. coli BW25113; microemulsion D4, end-point isolate 4-1",16 µg/mL
same,MIC of DOX,"E. coli BW25113; microemulsion D4, end-point isolate 4-2",16 µg/mL
same,MIC of DOX,"E. coli BW25113; microemulsion D4, end-point isolate 4-3",16 µg/mL
same,MIC of DOX,"E. coli BW25113; microemulsion D4, end-point isolate 5-1",16 µg/mL
same,MIC of DOX,"E. coli BW25113; microemulsion D4, end-point isolate 5-2",16 µg/mL
same,MIC of DOX,"E. coli BW25113; microemulsion D4, end-point isolate 5-3",8 µg/mL
same,MIC of DOX,"E. coli BW25113; microemulsion D4, isolate C1 (no drug control)",4 µg/mL
same,MIC of DOX,"E. coli BW25113; microemulsion D4, isolate C2 (no drug control)",4 µg/mL
same,MIC of DOX,"E. coli BW25113; microemulsion D4, isolate C3 (no drug control)",4 µg/mL
same,MIC of DOX,"E. coli BW25113; microemulsion D5, end-point isolate 1-1",16 µg/mL
same,MIC of DOX,"E. coli BW25113; microemulsion D5, end-point isolate 1-2",>16 µg/mL
same,MIC of DOX,"E. coli BW25113; microemulsion D5, end-point isolate 1-3",16 µg/mL
same,MIC of DOX,"E. coli BW25113; microemulsion D5, end-point isolate 2-1",>16 µg/mL
same,MIC of DOX,"E. coli BW25113; microemulsion D5, end-point isolate 2-2",16 µg/mL
same,MIC of DOX,"E. coli BW25113; microemulsion D5, end-point isolate 2-3",16 µg/mL
same,MIC of DOX,"E. coli BW25113; microemulsion D5, end-point isolate 3-1",>16 µg/mL
same,MIC of DOX,"E. coli BW25113; microemulsion D5, end-point isolate 3-2",16 µg/mL
same,MIC of DOX,"E. coli BW25113; microemulsion D5, end-point isolate 3-3",>16 µg/mL
same,MIC of DOX,"E. coli BW25113; microemulsion D5, isolate C1 (no drug control)",4 µg/mL
same,MIC of DOX,"E. coli BW25113; microemulsion D5, isolate C2 (no drug control)",4 µg/mL
same,MIC of DOX,"E. coli BW25113; microemulsion D5, isolate C3 (no drug control)",4 µg/mL
O=C(N[C@H](CO)[C@H](O)c1ccc([N+](=O)[O-])cc1)C(Cl)Cl [chloramphenicol],MIC,P. aeruginosa PAO1,32 µg/mL
benzalkonium chloride,increase in minimum inhibitory concentration,Enterobacter species,5-300 fold
